ChEMBL document CHEMBL1148163, “Studies on inhibitors of skin tumor promotion, XII. Rotenoids from Amorpha fruticosa” (J Nat Prod, 1993)

Columns and labels:
[1] = Cytotoxicity against human Raji cells assessed as cell viability at 500 molar ratio; type: cell-based; conditions: read-out: Activity
Raji [2] = assay: Inhibition of 12-O-tetradecanoylphorbol-13-acetate induced EBV-early antigen activation in human Raji cells assessed as EA activation at 500 molar ratio relative to TPA; type: cell-based; design: scale not given: the % may be the effect or the level left; conditions: human gammaherpesvirus 4
Raji [3] = assay: Inhibition of 12-O-tetradecanoylphorbol-13-acetate induced EBV-early antigen activation in human Raji cells assessed as EA activation at 100 molar ratio relative to TPA; type: cell-based; design: scale not given: the % may be the effect or the level left; conditions: human gammaherpesvirus 4
Raji [4] = assay: Inhibition of 12-O-tetradecanoylphorbol-13-acetate induced EBV-early antigen activation in human Raji cells assessed as EA activation at 10 molar ratio relative to TPA; type: cell-based; design: scale not given: the % may be the effect or the level left; conditions: human gammaherpesvirus 4
[5] = Cytotoxicity against human Raji cells assessed as cell viability at 1000 molar ratio; type: cell-based; conditions: read-out: Activity
Raji [6] = assay: Inhibition of 12-O-tetradecanoylphorbol-13-acetate induced EBV-early antigen activation in human Raji cells assessed as EA activation at 1000 molar ratio relative to TPA; type: cell-based; design: scale not given: the % may be the effect or the level left; conditions: human gammaherpesvirus 4
[7] = Cytotoxicity against human Raji cells assessed as cell viability at 10 molar ratio; type: cell-based; conditions: read-out: Activity
[8] = Cytotoxicity against human Raji cells assessed as cell viability at 100 molar ratio; type: cell-based; conditions: read-out: Activity
Raji [9] = assay: Effect on TPA-induced cell cycle arrest in human Raji cells assessed as accumulation at G2/M phase at 32 nmol by flow cytometry; type: functional
Mus musculus [10] = assay: Inhibition of DMBA-induced/TPA-promoted carcinogenesis in ICR mouse assessed as number of mouse bearing one papilloma at 85 nmol administered twice weekly after 1 week of initiation; type: functional; design: scale not given: the % may be the effect or the level left
Raji [11] = assay: Effect on TPA-induced cell cycle arrest in human Raji cells assessed as accumulation at G1 phase at 32 nmol by flow cytometry; type: functional
Raji [12] = assay: Effect on TPA-induced cell cycle arrest in human Raji cells assessed as accumulation at S phase at 32 nmol by flow cytometry; type: functional
Mus musculus [13] = assay: Inhibition of DMBA-induced/TPA-promoted carcinogenesis in ICR mouse assessed as number of skin papillomas per mouse at 85 nmol administered twice weekly after 1 week of initiation for 20 weeks; type: functional; design: scale not given: the % may be the effect or the level left
Mus musculus [14] = assay: Inhibition of DMBA-induced/TPA-promoted carcinogenesis in ICR mouse assessed as reduction in skin-papilloma formation at 85 nmol administered twice weekly after 1 week of initiation for 20 weeks; type: functional; design: scale not given: the % may be the effect or the level left

Compound | viability at 500 molar ratio [1] [%] | Activity (Raji [2]) [%] | Activity (Raji [3]) [%] | Activity (Raji [4]) [%] | viability at 1000 molar ratio [5] [%] | Activity (Raji [6]) [%] | viability at 10 molar ratio [7] [%] | viability at 100 molar ratio [8] [%] | Activity (Raji [9]) [%] | Activity (Mus musculus [10]) [%] | Activity (Raji [11]) [%] | Activity (Raji [12]) [%] | Activity (Mus musculus [13]) [%] | Activity (Mus musculus [14]) [%]
COc1cc2c(cc1OC)[C@@H]1C(=O)c3ccc4c(c3O[C@@H]1CO2)C[C@H](C(C)(C)O[C@@H]1O[C@H](CO)[C@@H](O)[C@H](O)[C@H]1O)O4 | 80 | 36.3 | 87.3 | 100 | 80 | 0 | 80 | 80 |  |  |  |  |  | 
COc1cc2c(cc1OC)[C@]1(O)C(=O)c3ccc4c(c3O[C@@H]1CO2)C[C@H](C(C)(C)O)O4 | 80 | 43.9 | 82.1 | 100 | 80 | 22.6 | 80 | 80 |  |  |  |  |  | 
C=C(CO)[C@H]1Cc2c(ccc3c2O[C@@H]2COc4cc(OC)c(OC)cc4[C@@H]2C3=O)O1 [AMORPHIGENIN] | 80 | 64.2 | 100 | 100 | 80 | 31.7 | 80 | 80 |  |  |  |  |  | 
COC1=CC(=O)[C@]2(C=C1OC)OC[C@H]1Oc3c(ccc4c3C=CC(C)(C)O4)C(=O)[C@H]12 [AMORPHISPIRONONE] | 80 | 31.8 | 70.4 | 100 | 20 | 0 | 80 | 80 | 30.6 | 20 | 59.1 | 10.3 | >90 | >80
C=C(CO)[C@H]1Cc2c(ccc3c2O[C@@H]2COc4cc(OC)c(OC)cc4[C@]2(O)C3=O)O1 [DABINOL] | 80 | 89.7 | 100 | 100 | 80 | 24.2 | 80 | 80 |  |  |  |  |  | 
COc1cc2c(cc1OC)[C@]1(O)C(=O)c3ccc4c(c3O[C@@H]1CO2)C=CC(C)(C)O4 [TEPHROSIN] | 60 | 26.1 | 60.4 | 89.3 | 40 | 8 | 80 | 70 | 28.8 |  | 57.8 | 13.4 | 70 | 60
